This is an account of results in patent publication US12421240B2, “Hydropyrazino[1,2-d][1,4]diazepine compounds for the treatment of autoimmune disease” (Hoffmann-La Roche Inc., priority 2019, dated 2025).

This experiment has as its target T1, human TLR8 (Homo sapiens, UniProt Q9NR97).
T1 sequence (Q9NR97 27-1041): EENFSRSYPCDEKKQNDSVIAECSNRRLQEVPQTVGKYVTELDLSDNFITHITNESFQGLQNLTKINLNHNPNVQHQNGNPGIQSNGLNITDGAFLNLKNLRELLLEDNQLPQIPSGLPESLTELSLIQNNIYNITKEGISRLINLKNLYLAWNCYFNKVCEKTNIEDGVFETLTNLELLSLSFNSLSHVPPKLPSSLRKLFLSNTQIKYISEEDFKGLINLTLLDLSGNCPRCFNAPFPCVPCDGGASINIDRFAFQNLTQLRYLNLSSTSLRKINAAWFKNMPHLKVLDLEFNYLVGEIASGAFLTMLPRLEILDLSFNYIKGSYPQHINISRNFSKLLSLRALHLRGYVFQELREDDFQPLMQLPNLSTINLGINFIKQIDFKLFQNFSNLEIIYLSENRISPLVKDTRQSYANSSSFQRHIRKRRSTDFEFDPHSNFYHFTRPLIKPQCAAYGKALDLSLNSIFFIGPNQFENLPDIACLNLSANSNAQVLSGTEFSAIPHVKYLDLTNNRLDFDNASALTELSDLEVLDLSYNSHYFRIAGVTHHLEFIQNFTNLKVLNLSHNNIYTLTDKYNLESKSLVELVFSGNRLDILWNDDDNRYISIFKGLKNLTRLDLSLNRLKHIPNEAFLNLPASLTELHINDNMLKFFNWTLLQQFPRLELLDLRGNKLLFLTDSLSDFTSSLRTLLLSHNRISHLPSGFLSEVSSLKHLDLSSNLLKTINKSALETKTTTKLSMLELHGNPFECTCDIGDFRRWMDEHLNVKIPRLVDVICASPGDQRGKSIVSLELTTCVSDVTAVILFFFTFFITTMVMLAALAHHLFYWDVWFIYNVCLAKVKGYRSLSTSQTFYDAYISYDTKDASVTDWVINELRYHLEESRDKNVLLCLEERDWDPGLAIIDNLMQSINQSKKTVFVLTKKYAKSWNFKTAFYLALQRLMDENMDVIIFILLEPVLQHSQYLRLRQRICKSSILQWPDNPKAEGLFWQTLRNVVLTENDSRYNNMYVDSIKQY
Nature of the experiment: HEK293-Blue-hTLR-8 cells assay (SEAP reporter, R848 stimulation). The experiment is classed as cell-based. The following applies: HEK293-Blue-hTLR8 cells, R848 ligand, 20 hrs; read-out: HEK/hTLR8 IC50. As for the experimental part: The following tests were carried out in order to determine the activity of the compounds of formula (I), (Ia) or (Ib) in HEK293-Blue-hTLR-7/8/9 cells assay.
HEK293-Blue-hTLR-8 Cells Assay:
A stable HEK293-Blue-hTLR-8 cell line was purchased from InvivoGen (Cat. #: hkb-htlr8, San Diego, California, USA). These cells were originally designed for studying the stimulation of human TLR8 by monitoring the activation of NF-κB. A SEAP (secreted embryonic alkaline phosphatase) reporter gene was placed under the control of the IFN-β minimal promoter fused to five NF-κB and AP-1-binding sites. The SEAP was induced by activating NF-κB and AP-1 via stimulating HEK-Blue hTLR8 cells with TLR8 ligands. Therefore the reporter expression was declined by TLR8 antagonist under the stimulation of a ligand, such as R848, for incubation of 20 hrs. The cell culture supernatant SEAP reporter activity was determined using QUANTI-Blue™ kit (Cat. #: rep-qb1, Invivogen, San Diego, Ca., USA) at a wavelength of 640 nm, a detection medium that turns purple or blue in the presence of alkaline phosphatase.
HEK293-Blue-hTLR8 cells were incubated at a density of 250,000˜450,000 cells/mL in a volume of 170 μL in a 96-well plate in Dulbecco's Modified Eagle's medium (DMEM) containing 4.5 g/L glucose, 50 U/mL penicillin, […], […], 2 mM L-glutamine, 10% (v/v) heat-inactivated fetal bovine serum with addition of 20 μL test compound in a serial dilution in the presence of final DMSO at 1% and 10 μL of 60 uM R848 in above DMEM, perform incubation under 37° C. in a CO2 incubator for 20 hrs. Then 20 μL of the supernatant from each well was incubated with 180 μL Quanti-blue substrate solution at 37° C. for 2 hrs and the absorbance was read at 620-655 nm using a spectrophotometer. The signaling pathway that TLR8 activation leads to downstream NF-κB activation has been widely accepted, and therefore similar reporter assay was modified for evaluating TLR8 antagonist.

Consider `C[C@@H]1CN(c2ccc(C#N)c3ncccc23)C[C@@H]2CCN(Cc3cnc4c(c3)CNCC4)CCN21` [Example 10, 5-[(4R,10aS)-4-methyl-8-(5,6,7,8-tetrahydro-1,6-naphthyridin-3-ylmethyl)-1,3,4,6,7,9,10,10a-octahydropyrazino[1,2-d][1,4]diazepin-2-yl]quinoline-8-carbonitrile], for which the IC50 came to 5.2 nM.
As to `C[C@@H]1CN(c2ccc(C#N)c3ncccc23)C[C@@H]2CCN(c3ccc4c(n3)CNCC4)CCN21` [Example 5, 5-[(4R,10aS)-4-methyl-8-(5,6,7,8-tetrahydro-1,7-naphthyridin-2-yl)-1,3,4,6,7,9,10,10a-octahydropyrazino[1,2-d][1,4]diazepin-2-yl]quinoline-8-carbonitrile], the IC50 amounted to 3.9 nM.
`C[C@@H]1CN(c2ccc(C#N)c3ncccc23)C[C@@H]2CCN(Cc3ccc(N4C[C@@H](N)[C@@H](F)C4)cn3)CCN21` [Example 20, 5-[(4R,10aS)-8-[[5-[(3R,4S)-3-amino-4-fluoro-pyrrolidin-1-yl]-2-pyridyl]methyl]-4-methyl-1,3,4,6,7,9,10,10a-octahydropyrazino[1,2-d][1,4]diazepin-2-yl]quinoline-8-carbonitrile]: the IC50 came to 11 nM.
The same measure for `C[C@@H]1CN(c2ccc(C#N)c3ncccc23)C[C@@H]2CCN(c3ccc([C@H]4CNCCO4)cc3)CCN21` [Example 3, 5-[(4R,10aS)-4-methyl-8-[4-[(2S)-morpholin-2-yl]phenyl]-1,3,4,6,7,9,10,10a-octahydropyrazino[1,2-d][1,4]diazepin-2-yl]quinoline-8-carbonitrile]: 4.8 nM; for `C[C@@H]1CN(c2ccc(C#N)c3ncccc23)C[C@@H]2CCN(c3cc4c(cn3)CNCC4)CCN21` [Example 7, 5-[(4R,10aS)-4-methyl-8-(5,6,7,8-tetrahydro-2,7-naphthyridin-3-yl)-1,3,4,6,7,9,10,10a-octahydropyrazino[1,2-d][1,4]diazepin-2-yl]quinoline-8-carbonitrile]: 1.5 nM.
`C[C@@H]1CN(c2ccc(C#N)c3ncccc23)C[C@@H]2CCN(c3ccc(N4CCNCC4)nc3)CCN21` [Example 1, 5-[(4R,10aS)-4-methyl-8-(6-piperazin-1-yl-3-pyridyl)-1,3,4,6,7,9,10,10a-octahydropyrazino [1,2-d][1,4]diazepin-2-yl]quinoline-8-carbonitrile]: the IC50 was 61.7 nM.
The same measure for `CO[C@@H]1CN(c2ccc(CN3CC[C@H]4CN(c5ccc(C#N)c6ncccc56)C[C@@H](C)N4CC3)nc2)C[C@H]1N` [Example 22, 5-[(4R,10aS)-8-[[5-[(3R,4R)-3-amino-4-methoxy-pyrrolidin-1-yl]-2-pyridyl]methyl]-4-methyl-1,3,4,6,7,9,10,10a-octahydropyrazino[1,2-d][1,4]diazepin-2-yl]quinoline-8-carbonitrile]: 14.1 nM; for `C[C@@H]1CN(c2ccc(C#N)c3ncccc23)C[C@@H]2CCN(Cc3ncc(N4CCNCC4)cn3)CCN21` [Example 13, 5-[(4R,10aS)-4-methyl-8-[(5-piperazin-1-ylpyrimidin-2-yl)methyl]-1,3,4,6,7,9,10,10a-octahydropyrazino[1,2-d][1,4]diazepin-2-yl]quinoline-8-carbonitrile]: 31.7 nM.
Take `C[C@@H]1CN(c2ccc(C#N)c3ncccc23)C[C@@H]2CCN(Cc3cccc(N4CCNCC4)n3)CCN21` [Example 18, 5-[(4R,10aS)-4-methyl-8-[(6-piperazin-1-yl-2-pyridyl)methyl]-1,3,4,6,7,9,10,10a-octahydropyrazino[1,2-d][1,4]diazepin-2-yl]quinoline-8-carbonitrile]: the IC50 was determined as 8.1 nM.
As for `CO[C@@H]1CN(c2cnc(CN3CC[C@H]4CN(c5ccc(C#N)n6ncc(F)c56)C[C@@H](C)N4CC3)c(F)c2)C[C@H]1N` [Example 27, 4-[(4R,10aS)-8-[[5-[(3R,4R)-3-amino-4-methoxy-pyrrolidin-1-yl]-3-fluoro-2-pyridyl]methyl]-4-methyl-1,3,4,6,7,9,10,10a-octahydropyrazino[1,2-d][1,4]diazepin-2-yl]-3-fluoro-pyrazolo[1,5-a]pyridine-7-carbonitrile], the IC50 was found to be 10.1 nM.
Take `C[C@@H]1CN(c2ccc(C#N)c3ncccc23)C[C@@H]2CCN(Cc3cc4c(cn3)CNCC4)CCN21` [Example 8, 5-[(4R,10aS)-4-methyl-8-(5,6,7,8-tetrahydro-2,7-naphthyridin-3-ylmethyl)-1,3,4,6,7,9,10,10a-octahydropyrazino[1,2-d][1,4]diazepin-2-yl]quinoline-8-carbonitrile]: the IC50 worked out at 8.6 nM.
On to `C[C@@H]1CN(c2ccc(C#N)c3ncccc23)C[C@@H]2CCN(c3ccc4c(n3)CCNC4)CCN21` [Example 6, 5-[(4R,10aS)-4-methyl-8-(5,6,7,8-tetrahydro-1,6-naphthyridin-2-yl)-1,3,4,6,7,9,10,10a-octahydropyrazino[1,2-d][1,4]diazepin-2-yl]quinoline-8-carbonitrile], for which the IC50 was under 3.2 nM.
`C[C@@H]1CN(c2ccc(C#N)c3ncccc23)C[C@@H]2CCN(Cc3ccc4c(c3)CNCC4)CCN21` [Example 12, 5-[(4R,10aS)-4-methyl-8-(1,2,3,4-tetrahydroisoquinolin-7-ylmethyl)-1,3,4,6,7,9,10,10a-octahydropyrazino[1,2-d][1,4]diazepin-2-yl]quinoline-8-carbonitrile]: the IC50 was 2.7 nM.
Regarding `C[C@@H]1CN(c2ccc(C#N)c3ncccc23)C[C@@H]2CCN(c3cnc(N4CCNCC4)nc3)CCN21` [Example 2, 5-[(4R,10aS)-4-methyl-8-(2-piperazin-1-ylpyrimidin-5-yl)-1,3,4,6,7,9,10,10a-octahydropyrazino[1,2-d][1,4]diazepin-2-yl]quinoline-8-carbonitrile], the IC50 stood at 25.2 nM.
For `CO[C@@H]1CN(c2cnc(CN3CC[C@H]4CN(c5ccc(C#N)n6nccc56)C[C@@H](C)N4CC3)c(F)c2)C[C@H]1N` [Example 26, 4-[(4R,10aS)-8-[[5-[(3R,4R)-3-amino-4-methoxy-pyrrolidin-1-yl]-3-fluoro-2-pyridyl]methyl]-4-methyl-1,3,4,6,7,9,10,10a-octahydropyrazino[1,2-d][1,4]diazepin-2-yl]pyrazolo[1,5-a]pyridine-7-carbonitrile], the IC50 worked out at 85.7 nM.
Regarding `C[C@@H]1CN(c2ccc(C#N)c3ncccc23)C[C@@H]2CCN(c3cncc4c3CCNC4)CCN21` [Example 4, 5-[(4R,10aS)-4-methyl-8-(5,6,7,8-tetrahydro-2,7-naphthyridin-4-yl)-1,3,4,6,7,9,10,10a-octahydropyrazino[1,2-d][1,4]diazepin-2-yl]quinoline-8-carbonitrile], the IC50 came to 2.4 nM.
In the case of `C[C@@H]1CN(c2ccc(C#N)c3ncccc23)C[C@@H]2CCN(Cc3cc4c(cn3)CCNC4)CCN21` [Example 9, 5-[(4R,10aS)-4-methyl-8-(5,6,7,8-tetrahydro-2,6-naphthyridin-3-ylmethyl)-1,3,4,6,7,9,10,10a-octahydropyrazino[1,2-d][1,4]diazepin-2-yl]quinoline-8-carbonitrile], the IC50 amounted to 6.4 nM.
